From patent US6355799B1, “Substituted benzene compounds, process for their preparation, and herbicidal and defoliant compositions containing them” (ISK Americas Incorporated, priority 1997, dated 2002)

Experiments:
Assay type in all cases: in vivo
[1] = test system: redroot pigweed (Amaranthus retroflexus, AMARE); assay: Pre-emerge test, greenhouse herbicide activity screening; settings: rated 14 days after application, 0 = no damage, 100 = complete death
Method in brief: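 Sandy loam pots; pre-emerge: sown 1 d pre-spray, surface-watered after, then bottom-watered. Post-emerge: sown 8–21 d before, 2–3 leaf stage, + 0.25% v/v NIS, bottom-watered. Acetone, 187 l/ha track spray, 15–1000 g ai/ha. 0–100 injury score, day 14.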

[2] = test system: barnyardgrass (Echinochloa crus-galli, ECHCG); assay: Post-emerge test, greenhouse herbicide activity screening; settings: post-emerge, 14 days after application, rating scale 0-100
Method in brief: (§1)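 Compounds in acetone were track-sprayed at 15-1000 g ai/ha (187 l/ha) on sandy loam pots: pre-emerge one day after seeding, post-emerge at 2-3 leaf stage with 0.25% v/v non-ionic surfactant. Phytotoxicity was rated 14 days later on a 0 (no damage) to 100 (complete death) scale.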

[3] = test system: ivyleaf morningglory (Ipomoea hederacea, IPOHE); assay: as above; settings: post-emerge, 14 days after application, rating scale 0-100
Method in brief: as §1

[4] = test system: sicklepod (Cassia obtusifolia, CASOB); assay: as above; settings: post-emerge, 14 days after application, rating scale 0-100
Method in brief: as §1

[5] = test system: large crabgrass (Digitaria sanguinalis, DIGSA); assay: as above; settings: post-emerge, 14 days after application, rating scale 0-100
Method in brief: as §1

[6] = test system: johnsongrass (Sorghum halepense, SORHA); assay: as above; settings: post-emerge, 14 days after application, rating scale 0-100
Method in brief: as §1

[7] = test system: common ragweed (Ambrosia artemisizfolia L., AMBEL); assay: as above; settings: post-emerge, 14 days after application, rating scale 0-100
Method in brief: as §1

[8] = test system: velvetleaf (Abutilon theophrasti, ABUTH); assay: as above; settings: post-emerge, 14 days after application, rating scale 0-100
Method in brief: as §1

[9] = test system: lambsquarters (Chenopodium album, CHEAL); assay: as above; settings: post-emerge, 14 days after application, rating scale 0-100
Method in brief: as §1

[10] = test system: redroot pigweed (Amaranthus retroflexus, AMARE); assay: as above; settings: post-emerge, 14 days after application, rating scale 0-100
Method in brief: as §1

[11] = test system: barnyardgrass (Echinochloa crus-galli, ECHCG); assay: Pre-emerge test, greenhouse herbicide activity screening; settings: rated 14 days after application, 0 = no damage, 100 = complete death
Method in brief: (§2)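 Rating: 0–100 visual injury, 14 DAA. Application: acetone, 187 l/ha, 15–1000 g ai/ha, flat-fan track sprayer with nozzle 40–45 cm above soil or canopy. Post-emerge runs used 0.25% v/v surfactant on 2–3 leaf plants.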

[12] = test system: ivyleaf morningglory (Ipomoea hederacea, IPOHE); assay: as above; settings: rated 14 days after application, 0 = no damage, 100 = complete death
Method in brief: as §2

[13] = test system: sicklepod (Cassia obtusifolia, CASOB); assay: as above; settings: rated 14 days after application, 0 = no damage, 100 = complete death
Method in brief: as §2

[14] = test system: large crabgrass (Digitaria sanguinalis, DIGSA); assay: as above; settings: rated 14 days after application, 0 = no damage, 100 = complete death
Method in brief: as §2

[15] = test system: johnsongrass (Sorghum halepense, SORHA); assay: as above; settings: rated 14 days after application, 0 = no damage, 100 = complete death
Method in brief: as §2

[16] = test system: common ragweed (Ambrosia artemisizfolia L., AMBEL); assay: as above; settings: rated 14 days after application, 0 = no damage, 100 = complete death
Method in brief: as §2

[17] = test system: green foxtail (Setaria viridis, SETVI); assay: as above; settings: rated 14 days after application, 0 = no damage, 100 = complete death
Method in brief: as §2

[18] = test system: velvetleaf (Abutilon theophrasti, ABUTH); assay: as above; settings: rated 14 days after application, 0 = no damage, 100 = complete death
Method in brief: as §2

[19] = test system: lambsquarters (Chenopodium album, CHEAL); assay: as above; settings: rated 14 days after application, 0 = no damage, 100 = complete death
Method in brief: as §2

[20] = test system: upland rice (Oryza sp., var. Tebonnet, RICE); assay: Post-emerge test, crop safety; settings: post-emerge, 14 days after application, rating scale 0-100
Method in brief: (§3)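 Plants grown in 10 cm pots of sandy loam mix received acetone-dissolved compounds through a moving flat-fan nozzle. Doses ranged from 15 to 1000 g ai/ha. Pre-emerge pots were seeded one day earlier, post-emerge pots 8–21 days earlier. Fourteen days on, each pot was graded 0–100 for damage.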

[21] = test system: field corn (Zea mays L., var. Dekalb 535, CORN); assay: Post-emerge test, crop safety; settings: post-emerge, 14 days after application, rating scale 0-100
Method in brief: as §3

[22] = test system: upland rice (Oryza sp., var. Tebonnet, RICE); assay: Pre-emerge test, crop safety; settings: rated 14 days after application, 0 = no damage, 100 = complete death
Method in brief: as §3

[23] = test system: field corn (Zea mays L., var. Dekalb 535, CORN); assay: Pre-emerge test, crop safety; settings: rated 14 days after application, 0 = no damage, 100 = complete death
Method in brief: as §3

Structure (SMILES): COc1c(Cl)cc(F)c(-n2c(=O)cc(C(F)(F)F)n(C)c2=O)c1N(C(=O)c1ccc(C(F)(F)F)cc1)C(=O)c1ccc(C(F)(F)F)cc1 [2-34]
- Pre-emerge Herbicidal Activity, phytotoxicity rating (0-100), AMARE ([1]; 63 g ai/ha): 100
- Pre-emerge Herbicidal Activity, phytotoxicity rating (0-100), AMARE ([1]; 250 g ai/ha): 100
- phytotoxicity rating ECHCG ([2]; 63 g ai/ha): 0
- phytotoxicity rating ECHCG ([2]; 250 g ai/ha): 30
- phytotoxicity rating IPOHE ([3]; 63 g ai/ha): 75
- phytotoxicity rating IPOHE ([3]; 250 g ai/ha): 95
- phytotoxicity rating CASOB ([4]; 63 g ai/ha): 100
- phytotoxicity rating CASOB ([4]; 250 g ai/ha): 100
- phytotoxicity rating DIGSA ([5]; 63 g ai/ha): 10
- phytotoxicity rating DIGSA ([5]; 250 g ai/ha): 30
- phytotoxicity rating SORHA ([6]; 63 g ai/ha): 40
- phytotoxicity rating SORHA ([6]; 250 g ai/ha): 80
- phytotoxicity rating AMBEL ([7]; 63 g ai/ha): 70
- phytotoxicity rating AMBEL ([7]; 250 g ai/ha): 85
- phytotoxicity rating ABUTH ([8]; 63 g ai/ha): 100
- phytotoxicity rating ABUTH ([8]; 250 g ai/ha): 100
- phytotoxicity rating CHEAL ([9]; 63 g ai/ha): 85
- phytotoxicity rating CHEAL ([9]; 250 g ai/ha): 90
- phytotoxicity rating AMARE ([10]; 63 g ai/ha): 95
- phytotoxicity rating AMARE ([10]; 250 g ai/ha): 95
- Pre-emerge Herbicidal Activity, phytotoxicity rating (0-100), ECHCG ([11]; 63 g ai/ha): 70
- Pre-emerge Herbicidal Activity, phytotoxicity rating (0-100), ECHCG ([11]; 250 g ai/ha): 99
- Pre-emerge Herbicidal Activity, phytotoxicity rating (0-100), IPOHE ([12]; 63 g ai/ha): 100
- Pre-emerge Herbicidal Activity, phytotoxicity rating (0-100), IPOHE ([12]; 250 g ai/ha): 100
- Pre-emerge Herbicidal Activity, phytotoxicity rating (0-100), CASOB ([13]; 63 g ai/ha): 100
- Pre-emerge Herbicidal Activity, phytotoxicity rating (0-100), CASOB ([13]; 250 g ai/ha): 100
- Pre-emerge Herbicidal Activity, phytotoxicity rating (0-100), DIGSA ([14]; 63 g ai/ha): 70
- Pre-emerge Herbicidal Activity, phytotoxicity rating (0-100), DIGSA ([14]; 250 g ai/ha): 100
- Pre-emerge Herbicidal Activity, phytotoxicity rating (0-100), SORHA ([15]; 63 g ai/ha): 20
- Pre-emerge Herbicidal Activity, phytotoxicity rating (0-100), SORHA ([15]; 250 g ai/ha): 85
- Pre-emerge Herbicidal Activity, phytotoxicity rating (0-100), AMBEL ([16]; 63 g ai/ha): 100
- Pre-emerge Herbicidal Activity, phytotoxicity rating (0-100), AMBEL ([16]; 250 g ai/ha): 100
- Pre-emerge Herbicidal Activity, phytotoxicity rating (0-100), SETVI ([17]; 63 g ai/ha): 95
- Pre-emerge Herbicidal Activity, phytotoxicity rating (0-100), SETVI ([17]; 250 g ai/ha): 100
- Pre-emerge Herbicidal Activity, phytotoxicity rating (0-100), ABUTH ([18]; 63 g ai/ha): 100
- Pre-emerge Herbicidal Activity, phytotoxicity rating (0-100), ABUTH ([18]; 250 g ai/ha): 100
- Pre-emerge Herbicidal Activity, phytotoxicity rating (0-100), CHEAL ([19]; 63 g ai/ha): 100
- Pre-emerge Herbicidal Activity, phytotoxicity rating (0-100), CHEAL ([19]; 250 g ai/ha): 100
- phytotoxicity rating RICE ([20]; 63 g ai/ha): 65
- phytotoxicity rating RICE ([20]; 250 g ai/ha): 85
- phytotoxicity rating CORN ([21]; 63 g ai/ha): 60
- phytotoxicity rating CORN ([21]; 250 g ai/ha): 90
- Pre-emerge phytotoxicity rating (0-100), crop damage, RICE ([22]; 63 g ai/ha): 40
- Pre-emerge phytotoxicity rating (0-100), crop damage, RICE ([22]; 250 g ai/ha): 90
- Pre-emerge phytotoxicity rating (0-100), crop damage, CORN ([23]; 63 g ai/ha): 25
- Pre-emerge phytotoxicity rating (0-100), crop damage, CORN ([23]; 250 g ai/ha): 90

Structure (SMILES): COc1c(Cl)cc(F)c(-n2c(=O)cc(C(F)(F)F)n(C)c2=O)c1NC(=O)c1ccc(-c2ccccc2)cc1 [2-37]
- Pre-emerge Herbicidal Activity, phytotoxicity rating (0-100), AMARE ([1]; 63 g ai/ha): 0
- Pre-emerge Herbicidal Activity, phytotoxicity rating (0-100), AMARE ([1]; 250 g ai/ha): 30
- phytotoxicity rating ECHCG ([2]; 63 g ai/ha): 0
- phytotoxicity rating ECHCG ([2]; 250 g ai/ha): 0
- phytotoxicity rating IPOHE ([3]; 63 g ai/ha): 0
- phytotoxicity rating IPOHE ([3]; 250 g ai/ha): 0
- phytotoxicity rating CASOB ([4]; 63 g ai/ha): 0
- phytotoxicity rating CASOB ([4]; 250 g ai/ha): 0
- phytotoxicity rating DIGSA ([5]; 63 g ai/ha): 0
- phytotoxicity rating DIGSA ([5]; 250 g ai/ha): 0
- phytotoxicity rating SORHA ([6]; 63 g ai/ha): 0
- phytotoxicity rating SORHA ([6]; 250 g ai/ha): 0
- phytotoxicity rating AMBEL ([7]; 63 g ai/ha): 0
- phytotoxicity rating AMBEL ([7]; 250 g ai/ha): 0
- phytotoxicity rating ABUTH ([8]; 63 g ai/ha): 0
- phytotoxicity rating ABUTH ([8]; 250 g ai/ha): 30
- phytotoxicity rating CHEAL ([9]; 63 g ai/ha): 0
- phytotoxicity rating CHEAL ([9]; 250 g ai/ha): 20
- phytotoxicity rating AMARE ([10]; 63 g ai/ha): 0
- phytotoxicity rating AMARE ([10]; 250 g ai/ha): 10
- Pre-emerge Herbicidal Activity, phytotoxicity rating (0-100), ECHCG ([11]; 63 g ai/ha): 0
- Pre-emerge Herbicidal Activity, phytotoxicity rating (0-100), ECHCG ([11]; 250 g ai/ha): 0
- Pre-emerge Herbicidal Activity, phytotoxicity rating (0-100), IPOHE ([12]; 63 g ai/ha): 0
- Pre-emerge Herbicidal Activity, phytotoxicity rating (0-100), IPOHE ([12]; 250 g ai/ha): 0
- Pre-emerge Herbicidal Activity, phytotoxicity rating (0-100), CASOB ([13]; 63 g ai/ha): 0
- Pre-emerge Herbicidal Activity, phytotoxicity rating (0-100), CASOB ([13]; 250 g ai/ha): 0
- Pre-emerge Herbicidal Activity, phytotoxicity rating (0-100), DIGSA ([14]; 63 g ai/ha): 0
- Pre-emerge Herbicidal Activity, phytotoxicity rating (0-100), DIGSA ([14]; 250 g ai/ha): 0
- Pre-emerge Herbicidal Activity, phytotoxicity rating (0-100), SORHA ([15]; 63 g ai/ha): 0
- Pre-emerge Herbicidal Activity, phytotoxicity rating (0-100), SORHA ([15]; 250 g ai/ha): 0
- Pre-emerge Herbicidal Activity, phytotoxicity rating (0-100), AMBEL ([16]; 63 g ai/ha): 0
- Pre-emerge Herbicidal Activity, phytotoxicity rating (0-100), AMBEL ([16]; 250 g ai/ha): 0
- Pre-emerge Herbicidal Activity, phytotoxicity rating (0-100), SETVI ([17]; 63 g ai/ha): 0
- Pre-emerge Herbicidal Activity, phytotoxicity rating (0-100), SETVI ([17]; 250 g ai/ha): 0
- Pre-emerge Herbicidal Activity, phytotoxicity rating (0-100), ABUTH ([18]; 63 g ai/ha): 0
- Pre-emerge Herbicidal Activity, phytotoxicity rating (0-100), ABUTH ([18]; 250 g ai/ha): 30
- Pre-emerge Herbicidal Activity, phytotoxicity rating (0-100), CHEAL ([19]; 63 g ai/ha): 0
- Pre-emerge Herbicidal Activity, phytotoxicity rating (0-100), CHEAL ([19]; 250 g ai/ha): 50
- phytotoxicity rating RICE ([20]; 63 g ai/ha): 0
- phytotoxicity rating RICE ([20]; 250 g ai/ha): 0
- phytotoxicity rating CORN ([21]; 63 g ai/ha): 0
- phytotoxicity rating CORN ([21]; 250 g ai/ha): 0
- Pre-emerge phytotoxicity rating (0-100), crop damage, RICE ([22]; 63 g ai/ha): 0
- Pre-emerge phytotoxicity rating (0-100), crop damage, RICE ([22]; 250 g ai/ha): 0
- Pre-emerge phytotoxicity rating (0-100), crop damage, CORN ([23]; 63 g ai/ha): 0
- Pre-emerge phytotoxicity rating (0-100), crop damage, CORN ([23]; 250 g ai/ha): 0
